Structures can show the parent of a compound that is named as a salt. Where two headings read alike, the source gives them in different places.
What was measured:
[1] = system: SUDHL10 cells; assay: Induction of cytotoxicity in SUDHL10 cells (Assay 6); type: cell-based; details: 5 h, CellTiter-Glo, read-out: Cytotox SUDHL10 IC50 (median)
Outline: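 Cells plated overnight at 37 °C, then exposed to compound for 5 h in a humidified incubator at 37 °C. Viability read by CellTiter-Glo luminescence after 15 min shaking at room temperature; cell-free medium served as control.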

[2] = system: SUDHL10 cells; assay: Induction of caspase-3/7 activity in SUDHL10 cells (Assay 4); type: cell-based
Outline: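 Read-out: Caspase-Glo 3/7 luminescence (1 h, 37 °C) after cells, plated overnight, were treated with compounds for 3 h at 37 °C. Signal corrected for cell-free medium background and expressed relative to DMSO control mean.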

[3] = target: BCL-XL (Homo sapiens (Human), UniProt Q07817); assay: Protein-protein interaction assay BCL-XL/Bad BH3 peptide (BCL-XL assay, TR-FRET); type: binding; details: read-out: BCL-XL Assay IC50 (median)
Chain of BCL-XL (Q07817 1-212): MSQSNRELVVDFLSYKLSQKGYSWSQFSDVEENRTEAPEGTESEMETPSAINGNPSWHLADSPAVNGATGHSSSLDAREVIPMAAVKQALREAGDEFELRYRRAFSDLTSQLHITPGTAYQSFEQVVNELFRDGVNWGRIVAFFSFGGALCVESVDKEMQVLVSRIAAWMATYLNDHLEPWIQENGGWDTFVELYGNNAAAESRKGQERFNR
Outline: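 TR-FRET competition: 1 nM His-tagged human BCL-XL (1-212) versus 1 nM biotin-PEG Bad BH3 peptide tracer, buffer 50 mM Tris pH 7, NaCl, KF, DTT. Compound preincubated with protein 10 min at 22 °C; read after 1 h at 22 °C plus overnight at 4 °C. IC50 by 4-parameter regression of normalized ratios.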

[4] = system: HMC-1-8 cells; assay: Antiproliferation assay HMC-1-8 (Assay 7); type: cell-based
Outline: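 Luminescent viability signal (CellTiter-Glo) after 72 h of treatment served as read-out. IC50 values were derived with day 0 luminescence as CI and DMSO wells as C0.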

[5] = caspase-3/7 induction, 3 h, read-out: Caspase SUDHL10 EC50 (median)
[6] = Homo sapiens, SU-DHL10, 3 h, caspase-3/7 induction, 3 h, read-out: Caspase SUDHL10 EC50 (median)
[7] = 72 h, CellTiter-Glo, read-out: Antiproli HMC-1-8 IC50 median
[8] = read-out: Caspase SUDHL10 EC50 (median), caspase-3/7 induction, 3 h
[9] = 72 h, read-out: Antiproli HMC-1-8 IC50 median, 72 h, CellTiter-Glo
[10] = read-out: Antiproli HMC-1-8 IC50 median; 72 h, CellTiter-Glo

Question: `Cc1c2c(nn1C)C(CCO)OCCCCn1c(C(=O)O)c(CCCOc3cccc4ccccc34)c3ccc(Cl)c-2c31` (single isomer, unassigned; enantiomer 1) [Example 31, (+)-4-chloro-15-(2-hydroxyethyl)-2,3-dimethyl-7-{3-[(naphthalen-1-yl)oxy]propyl}-2,10,11,12,13,15-hexahydropyrazolo[4′,3′:9,10][1,6]oxazacycloundecino[8,7,6-hi]indole-8-carboxylic Acid (Enantiomer 1)] was tested. Which IC50 [1] did it give?
Answer: The IC50 was 0.35 µM.

Question: And the EC50 [2, 5]?
Answer: The EC50 was 0.24 µM.

Question: And the IC50 [3]?
Answer: Its IC50 is over 20 µM.

Question: What about the IC50 ([4]; 72 h, CellTiter-Glo; read-out: Antiproli HMC-1-8 IC50 median) of the same compound?
Answer: The IC50 was 6.8 µM.

Question: Which IC50 ([1]; Homo sapiens, SU-DHL10, 5 h) does the source give for `Cc1c2c(nn1C)C(CCN1CCOCC1)OCCCCn1c(C(=O)O)c(CCCOc3cccc4cc(F)ccc34)c3ccc(Cl)c-2c31` (single isomer, unassigned; enantiomer 2) [Example 18, 4-chloro-7-{3-[(6-fluoronaphthalen-1-yl)oxy]propyl}-2,3-dimethyl-15-[2-(morpholin-4-yl)ethyl]-2,10,11,12,13,15-hexahydropyrazolo[4′,3′:9,10][1,6]oxazacycloundecino[8,7,6-hi]indole-8-carboxylic Acid (Enantiomer 2)] here?
Answer: Its IC50 is 0.77 µM.

Question: And the EC50 [2, 6]?
Answer: Its EC50 is 2.3 µM.

Question: And the IC50 [3]?
Answer: The IC50 was over 20 µM.

Question: What about the IC50 [4, 7] of the same compound?
Answer: Its IC50 is 12.5 µM.

Question: With `CCC1OCCCCn2c(C(=O)O)c(CCCOc3cccc4ccccc34)c3ccc(Cl)c(c32)-c2c1nn(C)c2C` (single isomer, unassigned; enantiomer 1) [Example 29, (+)-4-chloro-15-ethyl-2,3-dimethyl-7-{3-[(naphthalen-1-yl)oxy]propyl}-2,10,11,12,13,15-hexahydropyrazolo[4′,3′:9,10][1,6]oxazacycloundecino[8,7,6-hi]indole-8-carboxylic Acid—N-ethylethanamine Salt (Enantiomer 1)] as the compound, how does the IC50 [1] read?
Answer: Its IC50 is 3.9 µM.

Question: And the EC50 [2, 8]?
Answer: The EC50 was 3.7 µM.

Question: What about the IC50 [3] of the same compound?
Answer: The IC50 was 14.2 µM.

Question: And the IC50 [4, 9]?
Answer: Its IC50 is 23.2 µM.

Question: `CCc1c2c(nn1C)C(CC(C)(C)O)OCCCCn1c(C(=O)O)c(CCCOc3cccc4cc(F)ccc34)c3ccc(Cl)c-2c31` (racemic) [Example 52, (rac)-4-chloro-3-ethyl-7-{3-[(6-fluoronaphthalen-1-yl)oxy]propyl}-(15-rac)-(2-hydroxy-2-methylpropyl)-2-methyl-2,10,11,12,13,15-hexahydropyrazolo[4′,3′:9,10][1,6]oxazacycloundecino[8,7,6-hi]indole-8-carboxylic Acid] was tested. Which IC50 ([1]; Homo sapiens, SU-DHL10, 5 h) did it give?
Answer: The IC50 was 0.28 µM.

Question: And the EC50 [2, 6]?
Answer: The EC50 was 0.16 µM.

Question: And the IC50 [3]?
Answer: The IC50 was 14.7 µM.

Question: And the IC50 [4, 7]?
Answer: Its IC50 is 3.19 µM.

Question: Which results are given for `Cc1c2c(nn1C)C(CCN1CCOCC1)OCCCCn1c(C(=O)O)c(CCCOc3cccc4cc(F)ccc34)c3ccc(F)c-2c31` (single isomer, unassigned; enantiomer 2) [Example 21, 4-fluoro-7-{3-[(6-fluoronaphthalen-1-yl)oxy]propyl}-2,3-dimethyl-15-[2-(morpholin-4-yl)ethyl]-2,10,11,12,13,15-hexahydropyrazolo[4′,3′:9,10][1,6]oxazacycloundecino[8,7,6-hi]indole-8-carboxylic Acid (Enantiomer 2)]?
Answer: IC50 ([1]; Homo sapiens, SU-DHL10, 5 h): 14 µM; EC50 [2, 6]: 13 µM; IC50 [3]: > 20 µM; IC50 [4, 7]: 13.3 µM

Question: With `Cc1c2c(nn1C)C(CCN1CCOCC1)OCCCCn1c(C(=O)O)c(CCCOc3cccc4ccccc34)c3ccc(Cl)c-2c31` (single isomer, unassigned; enantiomer 1) [Example 14, 4-chloro-2,3-dimethyl-15-[2-(morpholin-4-yl)ethyl]-7-{3-[(naphthalen-1-yl)oxy]propyl}-2,10,11,12,13,15-hexahydropyrazolo[4′,3′:9,10][1,6]oxazacycloundecino[8,7,6-hi]indole-8-carboxylic Acid (Enantiomer 1)] as the compound, how does the IC50 [1] read?
Answer: The IC50 was 0.034 µM.

Question: What about the EC50 [2, 5] of the same compound?
Answer: The EC50 was 0.031 µM.

Question: What about the IC50 [3] of the same compound?
Answer: Its IC50 is over 20 µM.

Question: And the IC50 [4, 7]?
Answer: Its IC50 is 0.381 µM.

Question: For `CCC1OCCCCn2c(C(=O)O)c(CCCOc3cccc4ccccc34)c3ccc(Cl)c(c32)-c2c1nn(C)c2C` (single isomer, unassigned; enantiomer 2) [Example 30, (−)-4-chloro-15-ethyl-2,3-dimethyl-7-{3-[(naphthalen-1-yl)oxy]propyl}-2,10,11,12,13,15-hexahydropyrazolo[4′,3′:9,10][1,6]oxazacycloundecino[8,7,6-hi]indole-8-carboxylic Acid—N-ethylethanamine Salt (Enantiomer 2)], which IC50 [1] is on record?
Answer: The IC50 was over 33 µM.

Question: What about the EC50 [2, 8] of the same compound?
Answer: Its EC50 is over 33 µM.

Question: And the IC50 [3]?
Answer: Its IC50 is over 20 µM.

Question: And the IC50 [4, 10]?
Answer: The IC50 was 22.6 µM.

Question: With `Cc1c2c(nn1C)C(CCN1CCOCC1)OCCCCn1c(C(=O)O)c(CCCOc3cccc4cc(F)ccc34)c3ccc(Cl)c-2c31` (single isomer, unassigned; enantiomer 1) [Example 17, 4-chloro-7-{3-[(6-fluoronaphthalen-1-yl)oxy]propyl}-2,3-dimethyl-15-[2-(morpholin-4-yl)ethyl]-2,10,11,12,13,15-hexahydropyrazolo[4′,3′:9,10][1,6]oxazacycloundecino[8,7,6-hi]indole-8-carboxylic Acid—N-ethylethanamine (Enantiomer 1)] as the compound, how does the IC50 ([1]; Homo sapiens, SU-DHL10, 5 h) read?
Answer: The IC50 was 0.0093 µM.

Question: What about the EC50 ([2]; Homo sapiens, SU-DHL10, 3 h, read-out: Caspase SUDHL10 EC50 (median), caspase-3/7 induction, 3 h) of the same compound?
Answer: Its EC50 is 0.0097 µM.

Question: And the IC50 [3]?
Answer: Its IC50 is over 20 µM.

Question: And the IC50 [4, 9]?
Answer: Its IC50 is 0.201 µM.

Question: Which results are given for `Cc1c2c(nn1C)C(C1CC1)OCCCCn1c(C(=O)O)c(CCCOc3cccc4ccccc34)c3ccc(Cl)c-2c31` (single isomer, unassigned; enantiomer 2) [Example 36, (−)-4-chloro-15-cyclopropyl-2,3-dimethyl-7-{3-[(naphthalen-1-yl)oxy]propyl}-2,10,11,12,13,15-hexahydropyrazolo[4′,3′:9,10][1,6]oxazacycloundecino[8,7,6-hi]indole-8-carboxylic Acid N-ethylethanamine Salt (Enantiomer 2)]?
Answer: IC50 [1]: 27 µM; EC50 [2, 8]: 27 µM; IC50 [3]: 13.8 µM; IC50 [4, 10]: 19 µM

Question: With `CCc1c2c(nn1C)C(CCO)OCCCCn1c(C(=O)O)c(CCCOc3cccc4cc(F)ccc34)c3ccc(Cl)c-2c31` (racemic) [Example 44, (rac)-4-chloro-3-ethyl-7-{3-[(6-fluoronaphthalen-1-yl)oxy]propyl}-(15-rac)-(2-hydroxyethyl)-2-methyl-2,10,11,12,13,15-hexahydropyrazolo[4′,3′:9,10][1,6]oxazacycloundecino[8,7,6-hi]indole-8-carboxylic Acid] as the compound, how does the IC50 ([1]; Homo sapiens, SU-DHL10, 5 h) read?
Answer: Its IC50 is 0.2 µM.

Question: And the EC50 [2, 6]?
Answer: Its EC50 is 0.15 µM.

Question: What about the IC50 [3] of the same compound?
Answer: Its IC50 is 12.5 µM.

Question: What about the IC50 [4, 7] of the same compound?
Answer: The IC50 was 2.63 µM.

Question: How did the IC50 ([1]; Homo sapiens, SU-DHL10, 5 h) turn out when `COCCC1OCCCCn2c(C(=O)O)c(CCCOc3cccc4ccccc34)c3ccc(Cl)c(c32)-c2c1nn(C)c2C` (racemic) [Example 37, (rac)-4-chloro-(15-rac)-(2-methoxyethyl)-2,3-dimethyl-7-{3-[(naphthalen-1-yl)oxy]propyl}-2,10,11,12,13,15-hexahydropyrazolo[4′,3′:9,10][1,6]oxazacycloundecino[8,7,6-hi]indole-8-carboxylic Acid] was run?
Answer: Its IC50 is 0.36 µM.

Question: What about the EC50 [2, 6] of the same compound?
Answer: The EC50 was 0.21 µM.

Question: And the IC50 [3]?
Answer: The IC50 was 17.1 µM.

Question: What about the IC50 [4, 7] of the same compound?
Answer: Its IC50 is 7.45 µM.

Question: `CCc1c2c(nn1C)C(CC(C)(C)O)OCCCCn1c(C(=O)O)c(CCCOc3cccc4cc(F)ccc34)c3ccc(Cl)c-2c31` (single isomer, unassigned; enantiomer 21) [Example 54, (−)-4-chloro-3-ethyl-7-{3-[(6-fluoronaphthalen-1-yl)oxy]propyl}-15-(2-hydroxy-2-methylpropyl)-2-methyl-2,10,11,12,13,15-hexahydropyrazolo[4′,3′:9,10][1,6]oxazacycloundecino[8,7,6-hi]indole-8-carboxylic Acid—N-ethylethanamine Salt (Enantiomer 21] was tested. Which IC50 [1] did it give?
Answer: Its IC50 is 17 µM.

Question: And the EC50 [2, 8]?
Answer: Its EC50 is 14 µM.

Question: And the IC50 [3]?
Answer: The IC50 was 14.3 µM.

Question: And the IC50 [4, 10]?
Answer: Its IC50 is 20.2 µM.

— patent US11440923B2, “Substituted macrocyclic indole derivatives” (Bayer Aktiengesellschaft, priority 2017, dated 2022)
